Test results from paper PMC9860787, “Indene-Derived Hydrazides Targeting Acetylcholinesterase Enzyme in Alzheimer’s: Design, Synthesis, and Biological Evaluation” (Pharmaceutics, 2022).
Entries after “also recorded” stand apart in the source; their conditions may differ.

Experiments:
Antioxidant DPPH assay = conditions: for % Free Radicle Scavenging, Mean ± SE: DPPH; for antioxidant property (in words): DPPH assay, compared to ascorbic acid
Method: The assay was performed by previously mentioned protocol. […] The volume of solution was adjusted to 200 μL using methanol. The 96-well plate was incubated at 37 °C for 25 min on shaking water bath with moderate shaking. The absorbance of reaction mixture was measured at 520 nm wavelength. The reducing percentage (RP) of the DPPH was determined by the equation: RP=100 (A0−Ac)/A0 where A0 was the control or untreated DPPH absorbance, and Ac was the test treated DPPH absorbance. Ascorbic acid was used as the standard for the DPPH assay. The assay was performed in triplicate.

hBuChE = molecular target: T1, hBuChE (Homo sapiens, UniProt P06276); experiment: biochemical; conditions: Ellman method, triplicate, three independent runs; read-out: IC50 ± SE hBuChE
T1 construct: PTCh (derived from human plasma); from tissue; host or cells: human plasma
Method: (§1) Enzyme activities were determined using the Ellman spectrophotometric method. Enzyme substrates acetylthiocholine iodide (ATCh) and propionylthiocholine iodide (PTCh) were purchased from Sigma-Aldrich, Steinheim, Germany, and thiole reagent 5.5′-dithiobis-2-nitrobenzoic acid (DTNB) from Sigma-Aldrich, St. Louis, MO, USA. Donpezil and were used as reference compounds (purchased from sigma);
(§2) In initial state, ATCh (derived from human erythrocytes) and PTCh (derived from human plasma) were dissolved in water and DTNB in 0.1 M sodium phosphate buffer (pH 7.4). Sulindac analogues were dissolved in water, and all further dilutions were made in water. Final concentrations of synthetics were in the range of 0.01–200 µM, while substrates were 1.0 mM and 4.0 mM for ATCh and PTCh, respectively. The final dilution of AChE and BChE was 500 and 300 times, respectively. Briefly, 50 µL of AChE (1.00 U mL^−1) or 50 µL of BuChE (0.6 U mL^−1) and 20 µL of the test or standard compounds were incubated in 96 well plates for 30 min at room temperature. […] The IC50 values were calculated using absorbance obtained from the test and standard compounds. The assays were performed in triplicate with three independent runs.

hAChE = molecular target: T2, hAChE (Homo sapiens, UniProt P22303); experiment: biochemical; conditions: for IC50: Ellman method, triplicate, three independent runs, read-out: IC50 ± SE hAChE; for Selectivity Ratio = (IC50 of BuChE)/(IC50 of AChE): BuChE over AChE
T2 construct: ATCh (derived from human erythrocytes); from tissue; host or cells: human erythrocytes
Method: as §1, §2

[1] = tested on: SH-SY5Y neuroblastoma cell lines; experiment: Cell line-based toxicity study, MTT assay; conditions: 72 h
Method: The toxicity of compound SD-30 was evaluated against SH-SY5Y neuroblastoma cell lines by the MTT assay according to the literature procedure with minor modifications. Briefly, the cell lines (density 1 × 10^5 cells/wells) were plated in 96 well plates and incubated for 24 h at 37 °C in CO2 incubator. Various concentrations of SD-30 ([…]) were added, and cells were incubated for 72 h. After that, […] of MTT reagent was added, and the cells were incubated for an additional 2 h. The obtained purple colored formazan crystals were solubilized in […] DMSO. The absorbance was measured at 570 nm, and the % cell viability was calculated. Each treatment was executed in triplicate and data are presented as percentage of the control.
Generally, in vitro cell line studies have been routinely used as these can be helpful in primary optimization and mechanistic investigations before animal-based toxicology studies. The evaluation of the neuroprotection effect of compound SD-30 ([…]) on human neuroblastoma SH-SY5Y cell lines was assessed through MTT (3-(4,5-dimethylthiazol-2-yl)-2,5- diphenyl tetrazolium bromide) assay This cell line is often used in AD due to its human origin and ease of maintenance.

[2] = molecular target: AChE induced Aβ 1-42 aggregation (Homo sapiens, UniProt P22303); format: biochemical; conditions: 10 and 20 µM, ThT, 48 h incubation
Method: Thioflavin T (ThT) assay was performed to determine the inhibition potential of SD-30 against AChE induced Aβ 1-42 aggregation. Aβ 1-42, purchased from Sigma, dissolved in the 10 mM phosphate buffer (PBS) of pH 7.5 to get a stock concentration of […]. The test compounds were dissolved in distilled water and further diluted with PBS. Different proportions of the Aβ 1-42: Inhibitor (1:0.5, 1:10, 1:20) were used in the ThT assay. […] The mixtures were incubated at room temperature for 48 h in the dark. […] The ThT assay was performed in triplicate and in three independent runs.

T2 sequence (P22303 other isoform, or with tags, fused parts or gaps): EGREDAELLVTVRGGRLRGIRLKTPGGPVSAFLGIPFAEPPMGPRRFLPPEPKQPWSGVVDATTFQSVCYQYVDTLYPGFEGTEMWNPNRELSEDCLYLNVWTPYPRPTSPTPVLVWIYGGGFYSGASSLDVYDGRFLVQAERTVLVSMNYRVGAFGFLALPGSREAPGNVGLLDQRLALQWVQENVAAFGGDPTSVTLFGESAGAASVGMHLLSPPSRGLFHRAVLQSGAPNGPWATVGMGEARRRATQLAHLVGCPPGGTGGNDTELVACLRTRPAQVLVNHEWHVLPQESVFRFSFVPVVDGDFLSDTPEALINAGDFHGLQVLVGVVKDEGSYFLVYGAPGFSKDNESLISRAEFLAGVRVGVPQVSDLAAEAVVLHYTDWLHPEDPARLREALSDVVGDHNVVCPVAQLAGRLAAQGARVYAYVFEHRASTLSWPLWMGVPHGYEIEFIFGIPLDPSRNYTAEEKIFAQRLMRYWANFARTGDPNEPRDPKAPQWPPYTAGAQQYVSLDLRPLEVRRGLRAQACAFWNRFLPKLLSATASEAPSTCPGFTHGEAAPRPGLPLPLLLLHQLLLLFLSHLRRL
Chain of AChE induced Aβ 1-42 aggregation (P22303 32-614): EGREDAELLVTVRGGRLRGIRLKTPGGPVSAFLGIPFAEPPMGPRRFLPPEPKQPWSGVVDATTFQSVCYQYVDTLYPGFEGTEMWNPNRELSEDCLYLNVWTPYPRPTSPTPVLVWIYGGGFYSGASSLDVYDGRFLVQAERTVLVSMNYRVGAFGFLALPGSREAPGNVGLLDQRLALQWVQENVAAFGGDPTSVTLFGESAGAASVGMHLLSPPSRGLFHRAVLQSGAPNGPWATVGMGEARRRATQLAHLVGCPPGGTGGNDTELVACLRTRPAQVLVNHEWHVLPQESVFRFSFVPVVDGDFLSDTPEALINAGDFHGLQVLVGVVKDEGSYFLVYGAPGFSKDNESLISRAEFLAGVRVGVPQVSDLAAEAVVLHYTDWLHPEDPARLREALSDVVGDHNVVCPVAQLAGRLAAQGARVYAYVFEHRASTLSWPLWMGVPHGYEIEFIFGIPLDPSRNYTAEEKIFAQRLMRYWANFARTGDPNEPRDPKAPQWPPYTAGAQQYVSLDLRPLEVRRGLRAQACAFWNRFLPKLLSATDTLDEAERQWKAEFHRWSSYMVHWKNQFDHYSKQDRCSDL

Structure (SMILES): COc1cccc(C=NNC(=O)CC2=C(C)C(=Cc3ccc([S+](C)[O-])cc3)c3ccc(F)cc32)c1 (stereo in doubt) [SD-25, 2-(5-fluoro-2-methyl-1-((E)-4-(methylsulfinyl)benzylidene)-1H-inden-3-yl)-N’-((E)-3-methoxybenzylidene) acetohydrazide]
- % Free Radicle Scavenging, Mean ± SE (Antioxidant DPPH assay; 50 µM): 14.00 ± 0.345%
- % Free Radicle Scavenging, Mean ± SE (Antioxidant DPPH assay; 100 µM): 40.95 ± 1.101%
- IC50 (hBuChE): > 1000 µM
- IC50 (hAChE): > 1000 µM

Structure (SMILES): COc1ccccc1C=NNC(=O)CC1=C(C)C(=Cc2ccc([S+](C)[O-])cc2)c2ccc(F)cc21 (stereo in doubt) [SD-31, 2-(5-fluoro-2-methyl-1-((E)-4-(methylsulfinyl)benzylidene)-1H-inden-3-yl)-N’-((E)-2-methoxybenzylidene) acetohydrazide]
- % Free Radicle Scavenging, Mean ± SE (Antioxidant DPPH assay; 50 µM): 12.24 ± 0.222%
- % Free Radicle Scavenging, Mean ± SE (Antioxidant DPPH assay; 100 µM): 39.39 ± 0.860%
- IC50 (hBuChE): > 1000 µM
- IC50 (hAChE): 733.16 ± 0.143 µM

Structure (SMILES): CC1=C(CC(=O)NN=Cc2c(O)cccc2O)c2cc(F)ccc2/C1=C\c1ccc([S+](C)[O-])cc1 (centres unmarked) [SD-40]
- % Free Radicle Scavenging, Mean ± SE (Antioxidant DPPH assay; 50 µM): 28.67 ± 0.422%
- % Free Radicle Scavenging, Mean ± SE (Antioxidant DPPH assay; 100 µM): 63.42 ± 0.831%
- IC50 (hBuChE): 286.01 ± 0.143 µM
- Selectivity Ratio = (IC50 of BuChE)/(IC50 of AChE) (hAChE): 2.63
- IC50 (hAChE): 108.9 ± 0.142 µM

Structure (SMILES): CC1=C(CC(=O)NN=Cc2cccc(O)c2O)c2cc(F)ccc2/C1=C\c1ccc([S+](C)[O-])cc1 (centres unmarked) [SD-42]
- antioxidant property (in words) (Antioxidant DPPH assay): reasonable antioxidant property
- % Free Radicle Scavenging, Mean ± SE (Antioxidant DPPH assay; 50 µM): 30.43 ± 0.299%
- % Free Radicle Scavenging, Mean ± SE (Antioxidant DPPH assay; 100 µM): 64.98 ± 1.071%
- IC50 (hBuChE): 264.33 ± 0.068 µM
- Selectivity Ratio = (IC50 of BuChE)/(IC50 of AChE) (hAChE): 2.86
- IC50 (hAChE): 92.44 ± 0.106 µM

Structure (SMILES): O=C1O[C@H]([C@@H](O)CO)C(O)=C1O [Ascorbic acid, reference compound]
- % Free Radicle Scavenging, Mean ± SE (Antioxidant DPPH assay; 50 µM): 42.66 ± 1.491%
- % Free Radicle Scavenging, Mean ± SE (Antioxidant DPPH assay; 100 µM): 76.76 ± 0.708%

Structure (SMILES): CC1=C(CC(=O)NN=Cc2ccc(O)cc2)c2cc(F)ccc2C1=Cc1ccc([S+](C)[O-])cc1 (stereo in doubt) [SD-30, 2-(5-fluoro-2-methyl-1-((E)-4-(methylsulfinyl)benzylidene)-1H-inden-3-yl)-N’-((E)-4-hydroxybenzylidene)acetohydrazide]
- concentration up to which no significant toxicity / cytotoxicity was observed [1]: up to 30 mM
- antioxidant property (in words) (Antioxidant DPPH assay): reasonable antioxidant properties; also recorded: reasonable antioxidant property
- % Free Radicle Scavenging, Mean ± SE (Antioxidant DPPH assay; 50 µM): 17.37 ± 0.988%
- % Free Radicle Scavenging, Mean ± SE (Antioxidant DPPH assay; 100 µM): 45.39 ± 1.036%
- effect on AChE-induced Aβ1-42 aggregation (in words) [2]: effectively inhibited AChE-induced Aβ aggregation; also recorded: effective on Aβ1-42 aggregation; also recorded: concentration-dependent decrease in the Aβ aggregation
- IC50 (hBuChE): 48.55 ± 0.136 µM
- Selectivity Ratio = (IC50 of BuChE)/(IC50 of AChE) (hAChE): 3.50
- IC50 (hAChE): 13.9 ± 0.163 µM

Structure (SMILES): CC1=C(CC(=O)NN=Cc2cccc(O)c2)c2cc(F)ccc2C1=Cc1ccc([S+](C)[O-])cc1 (stereo in doubt) [SD-24, 2-(5-fluoro-2-methyl-1-((E)-4-(methylsulfinyl)benzylidene)-1H-inden-3-yl)-N’-((E)-3-hydroxybenzylidene)acetohydrazide]
- antioxidant property (in words) (Antioxidant DPPH assay): reasonable antioxidant property
- % Free Radicle Scavenging, Mean ± SE (Antioxidant DPPH assay; 50 µM): 17.68 ± 0.478%
- % Free Radicle Scavenging, Mean ± SE (Antioxidant DPPH assay; 100 µM): 43.61 ± 0.983%
- IC50 (hBuChE): 92.86 ± 0.066 µM
- Selectivity Ratio = (IC50 of BuChE)/(IC50 of AChE) (hAChE): 2.30
- IC50 (hAChE): 40.43 ± 0.067 µM
